Reference: US20190030182A1, “WATER-SOLUBLE POLYMER-LINKED BINDING MOIETY AND DRUG COMPOUNDS” (Nektar Therapeutics, priority 2011, published 2019)

How the values were obtained:
[1] = test system: NCI-N87 cells (Her2 positive); assay: In vitro cytotoxic activity (CytoTox-Glo), NCI-N87; format: cell-based; conditions: Homo sapiens, N87, 48 hours, medium pH 6.5
Procedure: (§1) The conjugates were also tested in a Her2 negative cell line, […] as an experimental control. Serial dilutions of the conjugates and control compound were prepared. Cells were lifted from the flask using 2 mL of trypsin for 5 min, neutralized with 8 mL of complete growth medium, and centrifuged at 1200 rpm for 5 min. The supernatant was aspirated and the cell pellet was washed with PBS, centrifuged, then resuspended in complete growth medium (McCoy's for SKOV3 and RPMI-1640 for N87 and SK-N-SH, supplemented with 10% heat inactivated FBS), pH 6.5. Cells were counted, diluted, and then plated in white, clear bottom 96-well plates at a density of 20,000 cells/well, then followed immediately by addition of conjugates and control compound. Cells were incubated with the test articles for 48 hours in a 37° C., 5% CO^2 incubator, and then analyzed for cytotoxic activity using Promega CytoTox-Glo chemiluminescent reagent (Cat#G9291). Signal was quantified with a Perkin Elmer TopCount plate reader, and the data was analyzed using the GraphPad Prism software. FIGS. 4, 5, and 6 are linear regression graphs for each cell line where mean RLU is plotted vs. concentration.

[2] = test system: SKOV-3 cells (Her2 positive); assay: In vitro cytotoxic activity (CytoTox-Glo), SKOV-3; format: cell-based; conditions: Homo sapiens, SK-OV-3; SKOV3, 48 hours, medium pH 6.5
Procedure: as §1

[3] = test system: SK-N-SH cells (Her2 negative); assay: In vitro cytotoxic activity (CytoTox-Glo), SK-N-SH; format: cell-based; conditions: Homo sapiens, 48 hours, medium pH 6.5
Procedure: as §1

[4] = test system: N87 gastric carcinoma xenografts; assay: Antitumor activity in N87 (HER2 overexpressing gastric carcinoma) xenografts; format: in vivo, female SCID mice; conditions: single i.v.; for Animals with tumors in inhibition (number/group) / Animals with tumors in regression (number/group) / Mean Tumor Growth Inhibition / Regression: Day 35; for Highest Tumor Volume Recorded / Lowest Tumor Volume Recorded / Tumor Volume on Study Termination (Day 35) / Tumor Volume on Treatment Initiation (Day 0): Mean±SEM; for Tumor Volume on Treatment Initiation (Day 0): baseline
From the text: The objective of this study was to evaluate the antitumor activity of a single administration of anti-HER2 targeted PEG-conjugated docetaxel on N87 gastric carcinoma xenografts in female SCID mice.
Animal Husbandry: Female C.B.-17 SCID mice (5-6 weeks old), purchased from Charles River Laboratories were used for this study. Upon arrival, the mice were housed in ventilated polycarbonate cages with sterile bedding at five animals per cage and acclimated for a minimum of three days. The cages were identified by cage labels or tags. Sterilized (autoclaved or irradiated) water and commercial rodent diet were supplied ad libitum. Cages, bedding and water bottles were changed at least once a week and food was replenished as needed. The animals were maintained at a temperature
Tumor Cell Preparation: All handling and preparation of cells were conducted in a biosafety cabinet for sterility and safety. N87, gastric carcinoma cells from the NEKTAR liquid nitrogen freezers were used for this study. The cells were grown in sterile tissue culture flasks with RPMI 1640 media containing 10% Fetal Bovine Serum (FBS) until 85% confluence. To prepare for implantation, the cells in the flasks were rinsed briefly with an appropriate amount of 0.25% trypsin solution. The rinsate was removed and replaced with 2 to 3 mL of fresh 0.25% trypsin solution. The flasks were then placed in a 37′C incubator for 5 minutes. When the cells dissociated, an appropriate amount of complete growth media was added to neutralize the trypsin. The suspension was centrifuged at 1000 rpm for 10 minutes after which the supernatant was discarded. The cells were washed by resuspending the pellet in an appropriate volume of serum free media. A sample was removed for counting and the rest of the suspension was again centrifuged at 1000 rpm for 10 minutes. After centrifugation, the supernatant was discarded and the cell pellet resuspended in serum free media at an appropriate volume determined by the cell count.
Tumor Cell Implantation: All handling of animals and procedures were done in a biosafety cabinet. The animals' flanks were shaved prior to the day of implantation. The mice were anesthetized via isoflurane inhalation, when in proper anesthetic plane; the flanks were wiped with 70% isopropanol followed by implantation of the NCI N87 cells at 1×10^7 cells/site in 0.2 mL volume (in 50% Matrigel®) injected subcutaneous on the right flank of the animals. The animals were distributed accordingly based on the randomization generated by the StudyLog® software.
Treatment Groups: There were 5 groups with 8 to 10 animals each. Included were vehicle (Saline), Docetaxel at 10 mg/kg and 20 mg/kg, Affibody A-linear 2 kD PEG-docetaxel 10 mg/kg (Example 6) (Docetaxel concentration) and Affibody A-linear 20 kD PEG-docetaxel at 10 mg/kg (Example 6) (Docetaxel concentration) respectively.
Treatment Administration: The animals were distributed based on the randomization generated by the StudyLog® software. The mean tumor volumes on treatment day (Day 0) ranged from 209±8 mm^3 to 239±15 mm^3 (Mean±SEM). All test articles were diluted in sterile saline to the appropriate concentration and were administered as single dose to the appropriate treatment group via intravenous injection (i.v.). Animals were warmed in clear acrylic hotboxes to facilitate venous dilation. While in the hotboxes, the animals were closely observed for signs of overheating and distress. When the animals were amply warmed, they were removed from the hotboxes and transferred into appropriate mouse restrainers. The tails were wiped with alcohol pads and the test article in a syringe with a 27 gauge needle was injected into the lateral tail vein. Maximum treatment volume for the i.v. injections will not exceed 20 mL/kg.
Tumor Measurements and Body Weights: Tumors size was monitored at least twice weekly. Dimensions (length and the width) were measured using digital calipers. Tumor volume was computed using the formula: […]

[5] = Body weight in the N87 xenograft study; format: in vivo, female SCID mice
Procedure: Where: L=length of the tumor in millimeters and W=width of the tumor in millimeters Tumor growth on each animal was monitored to a maximum volume of […]. Animals were weighed prior to implantation and at least twice weekly for the duration of the study.
Mean body weights ranged from 19.6±0.4 g to 20.7±0.5 g (Mean±SEM) on treatment day (FIG. 10). Greatest mean body weight loss observed was 4% in group 3 (docetaxel, 20 mg·kg) on day 4 followed by group 2 (Docetaxel, 10 mg/kg) at 2% observed on days 4 and 7 (FIG. 11). No abnormal clinical observations were noted throughout the study.

CC(=O)O[C@@]12CO[C@@H]1C[C@H](O)[C@@]1(C)C(=O)[C@H](O)C3=C(C)[C@@H](OC(=O)[C@H](O)[C@@H](NC(=O)OC(C)(C)C)c4ccccc4)C[C@@](O)([C@@H](OC(=O)c4ccccc4)[C@H]21)C3(C)C [Docetaxel, reference compound]
EC50 [1]: 0.00544 nM | EC50 [2]: 1.9 nM | EC50 [3]: 1.97 nM | Animals with tumors in inhibition (number/group) ([4]; Docetaxel Dose 10 mg/kg): (9/10) | Animals with tumors in regression (number/group) ([4]; Docetaxel Dose 10 mg/kg): (1/10) | Mean Tumor Growth Inhibition ([4]; Docetaxel Dose 10 mg/kg): 67.5% | Regression ([4]; Docetaxel Dose 10 mg/kg): 26% | Highest Tumor Volume Recorded ([4]; Docetaxel Dose 10 mg/kg): 452 ± 80 mm^3 | Lowest Tumor Volume Recorded ([4]; Docetaxel Dose 10 mg/kg): 182 ± 25 mm^3 | Tumor Volume on Study Termination (Day 35) ([4]; Docetaxel Dose 10 mg/kg): 452 ± 80 mm^3 | Tumor Volume on Treatment Initiation (Day 0) ([4]; Docetaxel Dose 10 mg/kg): 224 ± 19 mm^3 | Animals with tumors in inhibition (number/group) ([4]; Docetaxel Dose 20 mg/kg): (9/10) | Animals with tumors in regression (number/group) ([4]; Docetaxel Dose 20 mg/kg): (1/10) | Mean Tumor Growth Inhibition ([4]; Docetaxel Dose 20 mg/kg): 85% | Regression ([4]; Docetaxel Dose 20 mg/kg): 10% | Highest Tumor Volume Recorded ([4]; Docetaxel Dose 20 mg/kg): 330 ± 33 mm^3 | Lowest Tumor Volume Recorded ([4]; Docetaxel Dose 20 mg/kg): 145 ± 8 mm^3 | Tumor Volume on Study Termination (Day 35) ([4]; Docetaxel Dose 20 mg/kg): 330 ± 33 mm^3 | Tumor Volume on Treatment Initiation (Day 0) ([4]; Docetaxel Dose 20 mg/kg): 225 ± 12 mm^3 | Mean body weight loss ([5]; 10 mg/kg, days 4 and 7): 2% | Greatest mean body weight loss ([5]; 20 mg·kg, day 4): 4%
